Test results: article PMC9227918 (Toxins, 2022)

Legend:
Assay type in all cases: in vitro ADME
[1] = Hepatic phase I metabolism, incubation with human liver microsomes and NADPH-regenerating system; settings: for main pI metabolite: human liver microsomes 5 mg/mL, 0.04 mg/mL PSD, 90 min, 37 °C, HPLC-DAD-Orbitrap-HRMS
[2] = Hepatic phase I metabolism, incubation with horse liver microsomes and NADPH-regenerating system; settings: for identified pI metabolites: horse liver microsomes 5 mg/mL, 0.04 mg/mL PSD, 90 min, 37 °C, HPLC-Orbitrap-HRMS; for extent of pI transformation / metabolite formation: horse microsomes compared with human microsomes
[3] = Hepatic phase II metabolism (sulfation), human liver cytosol with PAPS; settings: HPLC-QTOF-HRMS
[4] = Hepatic phase II metabolism (sulfation), horse liver cytosol with PAPS; settings: horse cytosol compared with human cytosol (Figure 7b)
[5] = Hepatic phase II metabolism (glucuronidation), horse liver microsomes with UDPGA; settings: UDPGA 0.3 mM, 0.02 mg/mL PSD, 90 min, HPLC-Orbitrap-HRMS
[6] = Hepatic phase II metabolism (glucuronidation), human liver microsomes with UDPGA

## C[C@@H]1CC[C@H]2C(C)(C)[C@H](O)CC[C@]2(C)[C@@]12Cc1c(O)cc3c(c1O2)CNC3=O [STLAC, stachybotrylactam]
[1]
  main pI metabolite: oxidized metabolites ([+O])
[2]
  identified pI metabolites: all but the desaturated metabolites were formed
  extent of pI transformation / metabolite formation: comparable to human microsomes

## C[C@@H]1CC[C@H]2C(C)(C)[C@H](O)CC[C@]2(C)[C@@]12Cc1c(O)cc(CO)c(C=O)c1O2 [L-671, L-671,667]
[3]
  abundance of sulfate signals among the PSDs: most abundant sulfate signals
  number of signals in the XIC of the sulfate (isomers): two signals
[1]; HPLC-Orbitrap-HRMS experiments, compared among the four PSDs
  variation in potential pI metabolites: largest variation in potential pI metabolites
[2]
  identified pI metabolites: L-671 [+O2–H2] could not be detected
[4]
  conversion in sulfation experiments: Opposite observations

## CC(=O)O[C@@H]1[C@H](OC(C)=O)C[C@@]2(C)[C@@H](CC[C@@H](C)[C@]23Cc2c(OC4O[C@H](C(=O)O)[C@@H](O)[C@H](O)[C@H]4O)cc(CO)c(C=O)c2O3)C1(C)C (stereo partly shown) [STBON D +GlcA]
[5]
  glucuronide (+GlcA) formation: identified
[6]; human microsomes, UDPGA 0.3 mM, 0.02 mg/mL PSD, 90 min, HPLC-Orbitrap-HRMS
  glucuronide (+GlcA) formation: identified

## C[C@@H]1CC[C@H]2C(C)(C)[C@H](O)CC[C@]2(C)[C@@]12Cc1c(O)cc(C=O)c(C=O)c1O2 [STDIAL, stachybotrydial]
[1]
  main pI metabolite: STDIAL [+O–H4]
[2]
  identified pI metabolites: all but the desaturated metabolites were formed
  extent of pI transformation / metabolite formation: comparable to human microsomes

## CC(=O)O[C@@H]1[C@H](OC(C)=O)C[C@@]2(C)[C@@H](CC[C@@H](C)[C@]23Cc2c(O)cc(CO)c(C=O)c2O3)C1(C)C [STBON D, stachybonoid D]
[1]
  main pI metabolite: oxidized metabolites ([+O])
[2]
  identified pI metabolites: only the metabolites STBON D [+O–H2] and STBON D [+O] were identified
[6]; human microsomes compared with horse microsomes, 90 min (Figure 7a)
  conversion in glucuronidation experiments: higher signals for STBON D +GlcA and lower signals of the respective parental compound
